# Read-outs that look alike come from different tables or passages of the source.
# System: HIV1 IIIb
# Test: microbe, parasite or virus in culture
# Assay type: cell-based
# Conditions: Human immunodeficiency virus 1, IIIB; for viability at 10 µg/mL: 10 ug/ml; for viability at 0.1 µg/mL: 0.1 ug/ml; for viability at 1 µg/mL: 1 ug/ml; for viability at 100 µg/mL: 100 ug/ml; for viability at 4.07 µg/mL: 4.07 ug/ml; for viability at 34.6 µg/mL: 34.6 ug/ml; for viability at 29 µg/mL: 29 ug/ml; for viability at 24.8 µg/mL: 24.8 ug/ml; for viability at 4.7 µg/mL: 4.7 ug/ml, virus kill 22.0%
# From the text: In-vitro Screening Anti--HIV XTT Assay
# This assay, which is available to the public by the National Cancer Institute, utilizes colorimetry based on the production of a colored formazin from a tetrazolium salt by viable cells, to develop a safe, rapid and quantitative measure of HIV cytopathology. The assay is a modification of the previously described screening method for the detection of anti-tumor drug cytotoxicity (D. A. Scudiero, et al, Cancer Res, 48, 4827-4833 (1988)). It involves the plating of susceptible human "host" cells with and without virus in microculture plates, adding various concentrations of the respective test compounds, incubating the plates for seven days, during which time infected, non-drug treated control cells are largely or totally destroyed by the virus. The number of remaining viable cells are determined utilizing a calorimetric endpoint. A beneficial antiviral effect is indicated by a response % grater than the virus kill %, with 100% being optimal.
# Anti-viral effect: Response (Viable Cells, determined by colorometric
# absorbance of formazan dye produced) as % of uninfected controls
# Virus Source: HIV1 IIIb; C, Virus producing H9 cells; V, cell free virus
# Virus Kill: Infected untreated cells as % of uninfected cell controls
# *: Culture redosed with compound after 3 days
# [1] = H9, 168 h, read-out: Antiviral Effect (viable cells as % of uninfected controls), run 1, source C (virus producing H9 cells), virus kill 21.0%
smiles,measurement,setting,value
"CCCCCCCCCCC[C@@H]1O[C@@H]1C(=O)O (relative stereo) [Example 19, (2S*-cis)-3-Undecyloxiranecarboxylic Acid]",viability at 10 µg/mL,"168 h, read-out: Antiviral Effect (viable cells as % of uninfected controls), run 4, source V (cell free virus), virus kill 57.0%",63.9%
same,viability at 10 µg/mL,"168 h, read-out: Antiviral Effect (viable cells as % of uninfected controls), run 5, source V (cell free virus), virus kill 26.0%",38.8%
same,viability at 0.1 µg/mL,"168 h, read-out: Antiviral Effect (viable cells as % of uninfected controls), run 6, source V (cell free virus), virus kill 19.0%",27.6%
same,viability at 1 µg/mL,"168 h, read-out: Antiviral Effect (viable cells as % of uninfected controls), run 7*, source V (cell free virus), virus kill 25.0%, culture redosed with compound after 3 days",12.5%
same,viability at 1 µg/mL,[1],22.6%
same,viability at 10 µg/mL,"H9, 168 h, read-out: Antiviral Effect (viable cells as % of uninfected controls), run 2, source C (virus producing H9 cells), virus kill 15.0%",55.7%
same,viability at 1 µg/mL,"H9, 168 h, read-out: Antiviral Effect (viable cells as % of uninfected controls), run 3, source C (virus producing H9 cells), virus kill 13.0%",11.6%
"CCCCCCCCCCC[C@H]1O[C@@H]1C(=O)O (relative stereo) [Example 20, (2S*-trans)-3-Undecyloxiranecarboxylic Acid]",viability at 100 µg/mL,"168 h, read-out: Antiviral Effect (viable cells as % of uninfected controls), run 6, source V (cell free virus), virus kill 55.0%",75.7%
same,viability at 100 µg/mL,"168 h, read-out: Antiviral Effect (viable cells as % of uninfected controls), run 7, source V (cell free virus), virus kill 55.0%",84.3%
same,viability at 100 µg/mL,"168 h, read-out: Antiviral Effect (viable cells as % of uninfected controls), run 8, source V (cell free virus), virus kill 24.0%",40.2%
same,viability at 100 µg/mL,"168 h, read-out: Antiviral Effect (viable cells as % of uninfected controls), run 9, source V (cell free virus), virus kill 24.0%",72.5%
same,viability at 4.07 µg/mL,"168 h, read-out: Antiviral Effect (viable cells as % of uninfected controls), run 10, source V (cell free virus), virus kill 25.0%",45.5%
same,viability at 4.07 µg/mL,"168 h, read-out: Antiviral Effect (viable cells as % of uninfected controls), run 11*, source V (cell free virus), virus kill 23.0%, culture redosed with compound after 3 days",87.4%
same,viability at 10 µg/mL,"H9, 168 h, read-out: Antiviral Effect (viable cells as % of uninfected controls), run 1, source C (virus producing H9 cells), virus kill 18.0%",22.6%
same,viability at 10 µg/mL,"H9, 168 h, read-out: Antiviral Effect (viable cells as % of uninfected controls), run 2, source C (virus producing H9 cells), virus kill 14.0%",59.5%
same,viability at 100 µg/mL,"H9, 168 h, read-out: Antiviral Effect (viable cells as % of uninfected controls), run 3, source C (virus producing H9 cells), virus kill 14.0%",60.9%
same,viability at 100 µg/mL,"H9, 168 h, read-out: Antiviral Effect (viable cells as % of uninfected controls), run 4, source C (virus producing H9 cells), virus kill 10.0%",10%
same,viability at 100 µg/mL,"H9, 168 h, read-out: Antiviral Effect (viable cells as % of uninfected controls), run 5, source C (virus producing H9 cells), virus kill 10.0%",10.2%
"CCCCCCCCC[C@@H]1O[C@@H]1C(=O)O [Example 22, (2-S-cis)-3-Nonyloxiranecarboxylic Acid]",viability at 34.6 µg/mL,"168 h, read-out: Antiviral Effect (viable cells as % of uninfected controls), run 8, source V (cell free virus), virus kill 54.0%",85.5%
same,viability at 29 µg/mL,"168 h, read-out: Antiviral Effect (viable cells as % of uninfected controls), run 9, source V (cell free virus), virus kill 55.0%",68.5%
same,viability at 34.6 µg/mL,"168 h, read-out: Antiviral Effect (viable cells as % of uninfected controls), run 10, source V (cell free virus), virus kill 26.0%",40.3%
same,viability at 29 µg/mL,"168 h, read-out: Antiviral Effect (viable cells as % of uninfected controls), run 11, source V (cell free virus), virus kill 33.0%",41.9%
same,viability at 24.8 µg/mL,"168 h, read-out: Antiviral Effect (viable cells as % of uninfected controls), run 12, source V (cell free virus), virus kill 30.0%",23.1%
same,viability at 24.8 µg/mL,"168 h, read-out: Antiviral Effect (viable cells as % of uninfected controls), run 13*, source V (cell free virus), virus kill 20.0%, culture redosed with compound after 3 days",26.6%
same,viability at 10 µg/mL,[1],50.1%
same,viability at 0.1 µg/mL,"H9, 168 h, read-out: Antiviral Effect (viable cells as % of uninfected controls), run 2, source C (virus producing H9 cells), virus kill 20.0%",25.6%
same,viability at 0.1 µg/mL,"H9, 168 h, read-out: Antiviral Effect (viable cells as % of uninfected controls), run 3, source C (virus producing H9 cells), virus kill 8.0%",9.5%
same,viability at 34.6 µg/mL,"H9, 168 h, read-out: Antiviral Effect (viable cells as % of uninfected controls), run 4, source C (virus producing H9 cells), virus kill 16.0%",25.9%
same,viability at 29 µg/mL,"H9, 168 h, read-out: Antiviral Effect (viable cells as % of uninfected controls), run 5, source C (virus producing H9 cells), virus kill 13.0%",18.5%
same,viability at 34.6 µg/mL,"H9, 168 h, read-out: Antiviral Effect (viable cells as % of uninfected controls), run 6, source C (virus producing H9 cells), virus kill 14.0%",12.8%
same,viability at 2.9 µg/mL,"H9, 168 h, read-out: Antiviral Effect (viable cells as % of uninfected controls), run 7, 2.9 ug/ml, source C (virus producing H9 cells), virus kill 16.0%",11.5%
"COC(=O)[C@@H]1O[C@@H]1COCc1ccccc1 [Example 25, Methyl (2R-cis)-3-(benzyloxymethyl)oxirane Carboxylate]",viability at 10 µg/mL,"168 h, read-out: Antiviral Effect (viable cells as % of uninfected controls), run 4, source V (cell free virus), virus kill 55.0%",46.5%
same,viability at 1 µg/mL,"168 h, read-out: Antiviral Effect (viable cells as % of uninfected controls), run 5, source V (cell free virus), virus kill 27.0%",49%
same,viability at 4.7 µg/mL,"168 h, read-out: Antiviral Effect (viable cells as % of uninfected controls), run 6, source V (cell free virus)",25.6%
same,viability at 4.7 µg/mL,"168 h, read-out: Antiviral Effect (viable cells as % of uninfected controls), run 7*, source V (cell free virus), culture redosed with compound after 3 days",28.5%
same,viability at 100 µg/mL,"H9, 168 h, read-out: Antiviral Effect (viable cells as % of uninfected controls), run 1, source C (virus producing H9 cells), virus kill 20.0%",28.6%
same,viability at 100 µg/mL,"H9, 168 h, read-out: Antiviral Effect (viable cells as % of uninfected controls), run 2, source C (virus producing H9 cells), virus kill 13.0%",19.5%
same,viability at 10 µg/mL,"H9, 168 h, read-out: Antiviral Effect (viable cells as % of uninfected controls), run 3, source C (virus producing H9 cells), virus kill 11.0%",12.3%
"COC(=O)[C@H]1O[C@H]1COCc1ccccc1 [Example 26, Methyl(2S-cis)-3-(benzyloxymethyl)oxirane carboxylate]",viability at 10 µg/mL,"168 h, read-out: Antiviral Effect (viable cells as % of uninfected controls), run 6, source V (cell free virus), virus kill 54.0%",58.7%
same,viability at 100 µg/mL,"168 h, read-out: Antiviral Effect (viable cells as % of uninfected controls), run 7, source V (cell free virus), virus kill 54.0%",81.3%
same,viability at 1 µg/mL,"168 h, read-out: Antiviral Effect (viable cells as % of uninfected controls), run 8, source V (cell free virus), virus kill 23.0%",19.8%
same,viability at 100 µg/mL,"168 h, read-out: Antiviral Effect (viable cells as % of uninfected controls), run 9, source V (cell free virus), virus kill 23.0%",23.7%
same,viability at 487 µg/mL,"168 h, read-out: Antiviral Effect (viable cells as % of uninfected controls), run 10, 487 ug/ml, source V (cell free virus), virus kill 30.0%",28.1%
same,viability at 0.487 µg/mL,"168 h, read-out: Antiviral Effect (viable cells as % of uninfected controls), run 11*, 0.487 ug/ml, source V (cell free virus), virus kill 25.0%, culture redosed with compound after 3 days",26.6%
same,viability at 10 µg/mL,"H9, 168 h, read-out: Antiviral Effect (viable cells as % of uninfected controls), run 1, source C (virus producing H9 cells), virus kill 17.0%",20.8%
same,viability at 10 µg/mL,"H9, 168 h, read-out: Antiviral Effect (viable cells as % of uninfected controls), run 2, source C (virus producing H9 cells), virus kill 13.2%",39.4%
same,viability at 100 µg/mL,"H9, 168 h, read-out: Antiviral Effect (viable cells as % of uninfected controls), run 3, source C (virus producing H9 cells), virus kill 13.2%",54%
same,viability at 10 µg/mL,"H9, 168 h, read-out: Antiviral Effect (viable cells as % of uninfected controls), run 4, source C (virus producing H9 cells), virus kill 12.0%",13.8%
same,viability at 100 µg/mL,"H9, 168 h, read-out: Antiviral Effect (viable cells as % of uninfected controls), run 5, source C (virus producing H9 cells), virus kill 12.0%",16.3%

# Source: patent US6153589A, “2,3-epoxy alcohols, acids and derivatives as anti retroviral chemotherapeutic agents” (The United States of America as represented by the …, priority 1992, dated 2000)
